Target: T1, human recombinant serotonin (5-Hydroxytryptamine) 5-HT2C receptor (Homo sapiens, UniProt P28335)
T1 construct: expressed in transfected cells; host or cells: CHO-K1 cells
T1 sequence (P28335 33-458): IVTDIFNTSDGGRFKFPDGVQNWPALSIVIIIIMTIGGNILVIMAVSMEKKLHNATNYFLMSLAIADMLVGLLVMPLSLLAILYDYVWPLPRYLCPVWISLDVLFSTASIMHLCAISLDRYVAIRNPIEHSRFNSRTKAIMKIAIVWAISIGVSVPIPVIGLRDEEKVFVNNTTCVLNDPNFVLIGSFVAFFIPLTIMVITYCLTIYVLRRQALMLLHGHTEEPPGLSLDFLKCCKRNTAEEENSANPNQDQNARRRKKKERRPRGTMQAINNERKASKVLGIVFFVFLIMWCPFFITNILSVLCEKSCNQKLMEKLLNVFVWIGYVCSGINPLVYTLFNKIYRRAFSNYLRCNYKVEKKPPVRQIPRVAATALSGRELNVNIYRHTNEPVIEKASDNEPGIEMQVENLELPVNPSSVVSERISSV
Experiment: Serotonin 5-HT2C radioligand binding ([3H]Mesulergine)
Settings: compound at 1 μM; read-out: Serotonin (1 μM) 5-HT2C, percent inhibition of specific binding
In short: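 Membranes from CHO-K1 cells expressing human 5-HT2C, incubated with 1 nM [3H]mesulergine for 60 min at 25 °C in 50 mM Tris-HCl pH 7.4 with ascorbic acid and pargyline.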

Structure (SMILES)	inhibition at 1 µM [%]
COc1ccc(/C=C/n2c3c(c4cc(Cl)ccc42)CCN(C)CC3)cc1OC [Compound No. 226, (E)-9-chloro-6-(3,4-dimethoxystyryl)-3-methyl-1,2,3,4,5,6-hexahydroazepino[4,5-b]indole]	82
C/C(=C/n1c2c(c3cc(C)ccc31)CCN(C)CC2)c1ccc(Cl)cc1Cl [Compound No. 174, (Z)-6-(2-(2,4-dichlorophenyl)prop-1-enyl)-1,2,3,4,5,6-hexahydro-3,9-dimethylazepino[4,5-b]indole]	101
COc1ccc(C(O)Cn2c3c(c4cc(C)ccc42)CCN(C)CC3)cc1OC (stereo not drawn) [Compound No. 227, 1-(3,4-dimethoxyphenyl)-2-(3,9-dimethyl-2,3,4,5-tetrahydroazepino[4,5-b]indol-6(1H)-yl)ethanol]	66
C/C(=C/n1c2c(c3cc(Cl)ccc31)CCN(C)CC2)c1ccc(Cl)cc1Cl [Compound No. 152, (Z)-9-chloro-6-(2-(2,4-dichlorophenyl)prop-1-enyl)-1,2,3,4,5,6-hexahydro-3-methylazepino[4,5-b]indole]	94
Cc1ccc2c(c1)c1c(n2CC(=O)Nc2ccccc2)CCN(C)CC1 [Compound No. 79, 2-(2,3,4,5-tetrahydro-3,9-dimethylazepino[4,5-b]indol-6(1H)-yl)-N-phenylacetamide]	-18
CN1CCc2c(n(/C=C/c3ccccc3F)c3ccc(Cl)cc23)CC1 [Compound No. 83, (E)-9-chloro-6-(2-fluorostyryl)-3-methyl-1,2,3,4,5,6-hexahydro azepino[4,5-b]indole]	100
COc1ccc(/C=C/n2c3c(c4cc(Cl)ccc42)CCN(C)CC3)cc1F [Compound No. 158, (E)-6-(3-fluoro-4-methoxystyryl)-9-chloro-1,2,3,4,5,6-hexahydro-3-methylazepino[4,5-b]indole]	99
C/C(=C\n1c2c(c3cc(Cl)ccc31)CCN(C)CC2)c1ccc(F)cc1 [Compound No. 2, 9-chloro-6-((E)-2-(4-fluorophenyl)prop-1-enyl)-1,2,3,4,5,6-hexahydro-3-methylazepino[4,5-b]indole]	88
CN1CCc2c(n(/C=C/c3ccccc3)c3ccc(Cl)cc23)CC1 [Compound No. 228, (E)-9-chloro-3-methyl-6-styryl-1,2,3,4,5,6-hexahydroazepino[4,5-b]indole]	97
COc1ccc(C(O)Cn2c3c(c4cc(Cl)ccc42)CCN(C)CC3)cc1OC (stereo not drawn) [Compound No. 77, 2-(9-chloro-2,3,4,5-tetrahydro-3-methylazepino[4,5-b]indol-6(1H)-yl)-1-(3,4-dimethoxyphenyl)ethanol]	72
CN1CCc2c(n(CCc3ccc(C(F)(F)F)nc3)c3ccc(Cl)cc23)CC1 [Compound No. 1, 9-chloro-6-(2-(6-(trifluoromethyl)pyridin-3-yl)ethyl)-1,2,3,4,5,6-hexahydro-3-methylazepino[4,5-b]indole]	79
COc1ccc(/C=C/n2c3c(c4cc(Cl)ccc42)CCN(C)CC3)cc1 [Compound No. 78, 6-(4-methoxystyryl)-9-chloro-1,2,3,4,5,6-hexahydro-3-methylazepino[4,5-b]indole]	98
C=C(Cn1c2c(c3cc(Cl)ccc31)CCN(C)CC2)c1ccc(F)cc1 [Compound No. 82, 9-chloro-6-(2-(4-fluorophenyl)allyl)-3-methyl-1,2,3,4,5,6-hexahydroazepino[4,5-b]indole]	98
COc1ccc(/C=C/n2c3c(c4cc(C)ccc42)CCN(C)CC3)cc1F [Compound No. 180, (E)-6-(3-fluoro-4-methoxystyryl)-1,2,3,4,5,6-hexahydro-3,9-dimethylazepino[4,5-b]indole]	100
Cc1ccc2c(c1)c1c(n2CC(=O)N2CCNCC2)CCN(C)CC1 [Compound No. 224, 2-(3,9-dimethyl-2,3,4,5-tetrahydroazepino[4,5-b]indol-6(1H)-yl)-1-(piperazin-1-yl)ethanone]	11
Cc1cncc(CCn2c3c(c4cc(Cl)ccc42)CCN(C)CC3)c1 [Compound No. 3, 9-chloro-3-methyl-6-(2-(5-methylpyridin-3-yl)ethyl)-1,2,3,4,5,6-hexahydroazepino[4,5-b]indole]	94
Cc1ccc2c(c1)c1c(n2CC(=O)N2CCC(C)CC2)CCN(C)CC1 [Compound No. 225, 2-(3,9-dimethyl-2,3,4,5-tetrahydroazepino[4,5-b]indol-6(1H)-yl)-1-(4-methylpiperidin-1-yl)ethanone]	44
CC1CCN(C(=O)Cn2c3c(c4cc(Cl)ccc42)CCN(C)CC3)CC1 [Compound No. 76, 2-(9-chloro-2,3,4,5-tetrahydro-3-methylazepino[4,5-b]indol-6(1H)-yl)-1-(4-methylpiperidin-1-yl)ethanone]	78

— patent US9481676B2, “Azepino[4,5-B]indoles and methods of use” (Medivation Technologies, Inc., priority 2008, dated 2016)
